Venous lactate levels data for 1 molecule are collected here from US20090053697A1, “Pharmacological Applications of Mitochondrial DNA Assays” (priority 2001, published 2009).

Structures are written as SMILES.

The data set is described as follows: Random venous lactic acid measurement. It counts as in vivo, human. Particulars: for months after resuming therapy; normal range 0.5-2.1 mmol/L. From the text:
Venous specimens for lactic acid determination were collected in sodium fluoride/potassium oxalate tubes, with normal tourniquet and no specific patient instruction other than the avoidance of first clenching or hand pumping. […]

With `Cc1cn([C@H]2C[C@H](N=[N+]=[N-])[C@@H](CO)O2)c(=O)[nH]c1=O` [zidovudine], the venous lactate levels entry is reported as “remained within the normal range”.
